Assay: xn = mol fraction of the nth substance listed

O=P([O-])([O-])[O-].[Na+].[Na+].[Na+] + CCCCCCCCCCCC[N+](C)(C)C.[Br-] + O
298.15 K, 101 kPa
Details | electrical conductivity [S/m]
x2 = 0, x1 = 0.0001802 | 0.411
x2 = 0, x1 = 0.001799 | 2.052
x2 = 5.23e-06, x1 = 0.0001802 | 0.411
x2 = 7.86e-06, x1 = 0.001799 | 2.048
x2 = 1.209e-05, x1 = 0.0001802 | 0.4123
x2 = 1.591e-05, x1 = 0.001799 | 2.047
x2 = 1.895e-05, x1 = 0.0001802 | 0.4139
x2 = 2.633e-05, x1 = 0.001799 | 2.047
x2 = 2.887e-05, x1 = 0.0001802 | 0.4171
x2 = 3.573e-05, x1 = 0.0001802 | 0.4194
x2 = 3.912e-05, x1 = 0.001799 | 2.048
x2 = 4.223e-05, x1 = 0.0001802 | 0.4213
x2 = 4.89e-05, x1 = 0.0001802 | 0.4235
x2 = 5.21e-05, x1 = 0.001799 | 2.049
x2 = 5.756e-05, x1 = 0.0001802 | 0.4261
x2 = 6.605e-05, x1 = 0.0001802 | 0.429
x2 = 6.673e-05, x1 = 0.001799 | 2.051
x2 = 7.416e-05, x1 = 0.0001801 | 0.4318
x2 = 8.172e-05, x1 = 0.001799 | 2.054
x2 = 8.246e-05, x1 = 0.0001801 | 0.4346
x2 = 9.058e-05, x1 = 0.0001801 | 0.4375
x2 = 9.852e-05, x1 = 0.0001801 | 0.4405
x2 = 9.872e-05, x1 = 0.001799 | 2.059
x2 = 0.000107, x1 = 0.0001801 | 0.444
x2 = 0.0001133, x1 = 0.001799 | 2.063
x2 = 0.0001155, x1 = 0.0001801 | 0.4477
x2 = 0.0001247, x1 = 0.0001801 | 0.4515
x2 = 0.0001301, x1 = 0.001799 | 2.067
x2 = 0.0001324, x1 = 0.0001801 | 0.4544
x2 = 0.0001404, x1 = 0.0001801 | 0.4573
x2 = 0.000147, x1 = 0.001798 | 2.07
x2 = 0.000148, x1 = 0.0001801 | 0.4602
x2 = 0.0001566, x1 = 0.0001801 | 0.4633
x2 = 0.0001632, x1 = 0.001798 | 2.074
x2 = 0.0001658, x1 = 0.0001801 | 0.4669
x2 = 0.000175, x1 = 0.0001801 | 0.4702
x2 = 0.0001791, x1 = 0.001798 | 2.078
x2 = 0.0001842, x1 = 0.0001801 | 0.4735
x2 = 0.0001934, x1 = 0.0001801 | 0.4766
x2 = 0.0001954, x1 = 0.001798 | 2.081
x2 = 0.0002026, x1 = 0.0001801 | 0.4791
x2 = 0.0002111, x1 = 0.001798 | 2.083
x2 = 0.0002116, x1 = 0.0001801 | 0.481
x2 = 0.0002205, x1 = 0.0001801 | 0.4824
x2 = 0.0002268, x1 = 0.001798 | 2.086
x2 = 0.0002327, x1 = 0.0001801 | 0.4842
x2 = 0.0002427, x1 = 0.001798 | 2.089
x2 = 0.0002436, x1 = 0.0001801 | 0.4857
x2 = 0.0002524, x1 = 0.0001801 | 0.4866
x2 = 0.0002579, x1 = 0.001798 | 2.091
x2 = 0.0002612, x1 = 0.0001801 | 0.4876
x2 = 0.0002726, x1 = 0.0001801 | 0.489
x2 = 0.0002731, x1 = 0.001798 | 2.094
x2 = 0.0002851, x1 = 0.0001801 | 0.4902
x2 = 0.0002866, x1 = 0.001798 | 2.096
x2 = 0.0002984, x1 = 0.0001801 | 0.4919
x2 = 0.0003017, x1 = 0.001798 | 2.099
x2 = 0.0003094, x1 = 0.0001801 | 0.4931
x2 = 0.0003171, x1 = 0.001798 | 2.101
x2 = 0.0003315, x1 = 0.001798 | 2.103
x2 = 0.0003393, x1 = 0.0001801 | 0.4959
x2 = 0.0003465, x1 = 0.001798 | 2.105
x2 = 0.0003608, x1 = 0.001798 | 2.108
x2 = 0.0003754, x1 = 0.001798 | 2.11
x2 = 0.0003895, x1 = 0.001798 | 2.112
x2 = 0.000403, x1 = 0.001798 | 2.114
x2 = 0.0004205, x1 = 0.001798 | 2.117

CC(C)[C@H](NC(=O)CN)C(=O)O + CCCCCCCCCCCC[N+](C)(C)Cc1ccccc1.[Cl-] + O
electrical conductivity [S/m], 101 kPa
Details | 293.15 K | 298.15 K | 303.15 K | 308.15 K | 313.15 K
x1 = 0.0008948, x2 = 0 | 0.00327 | 0.00375 | 0.00427 | 0.00485 | 0.0055
x1 = 0.001799, x2 = 0 | 0.00533 | 0.00608 | 0.0069 | 0.0078 | 0.00879

c1c[nH]cn1 + CCCCCC[N+]1(C)CCCC1.O=S(=O)([N-]S(=O)(=O)C(F)(F)F)C(F)(F)F
101.33 kPa, x2 = 0.5
Details | viscosity [mPa·s]
343.15 K | 11
353.15 K | 8

CCCCCC[n+]1ccn(C)c1.[Cl-] + CCCCCC[n+]1ccn(C)c1.F[B-](F)(F)F
101 kPa
Details | electrical conductivity [S/m] | viscosity [mPa·s]
303 K, x1 = 0.2 | 0.0846 | –
303 K, x1 = 0.4 | 0.0415 | –
303 K, x1 = 0.6 | 0.0196 | –
303 K, x1 = 0.8 | 0.00783 | –
303 K, x1 = 1 | 0.00318 | –
303.15 K, x1 = 0.2 | – | 380
303.15 K, x1 = 0.4 | – | 800
303.15 K, x1 = 0.6 | – | 1835
308 K, x1 = 0.2 | 0.113 | –
308 K, x1 = 0.4 | 0.0581 | –
308 K, x1 = 0.6 | 0.029 | –
308 K, x1 = 0.8 | 0.0123 | –
308 K, x1 = 1 | 0.00531 | –
308.15 K, x1 = 0.2 | – | 275
308.15 K, x1 = 0.4 | – | 550
308.15 K, x1 = 0.6 | – | 1194
313 K, x1 = 0.2 | 0.147 | –
313 K, x1 = 0.4 | 0.0791 | –
313 K, x1 = 0.6 | 0.0413 | –
313 K, x1 = 0.8 | 0.0186 | –
313 K, x1 = 1 | 0.00852 | –
313.15 K, x1 = 0.2 | – | 204
313.15 K, x1 = 0.4 | – | 390
313.15 K, x1 = 0.6 | – | 810
313.15 K, x1 = 0.8 | – | 1892
318 K, x1 = 0.2 | 0.19 | –
318 K, x1 = 0.4 | 0.106 | –
318 K, x1 = 0.6 | 0.0575 | –
318 K, x1 = 0.8 | 0.0272 | –
318 K, x1 = 1 | 0.0133 | –
318.15 K, x1 = 0.2 | – | 156
318.15 K, x1 = 0.4 | – | 283
318.15 K, x1 = 0.6 | – | 560
318.15 K, x1 = 0.8 | – | 1237
323 K, x1 = 0.2 | 0.24 | –
323 K, x1 = 0.4 | 0.14 | –
323 K, x1 = 0.6 | 0.0791 | –
323 K, x1 = 0.8 | 0.0392 | –
323 K, x1 = 1 | 0.0202 | –
323.15 K, x1 = 0.2 | – | 122
323.15 K, x1 = 0.4 | – | 213
323.15 K, x1 = 0.6 | – | 400
323.15 K, x1 = 0.8 | – | 840
323.15 K, x1 = 1 | – | 1879
328 K, x1 = 0.2 | 0.299 | –
328 K, x1 = 0.4 | 0.179 | –
328 K, x1 = 0.6 | 0.106 | –
328 K, x1 = 0.8 | 0.0547 | –
328 K, x1 = 1 | 0.0295 | –
328.15 K, x1 = 0.2 | – | 98
328.15 K, x1 = 0.4 | – | 163
328.15 K, x1 = 0.6 | – | 296
328.15 K, x1 = 0.8 | – | 580
328.15 K, x1 = 1 | – | 1228
333 K, x1 = 0.2 | 0.368 | –
333 K, x1 = 0.4 | 0.227 | –
333 K, x1 = 0.6 | 0.139 | –
333 K, x1 = 0.8 | 0.0747 | –
333 K, x1 = 1 | 0.0423 | –
333.15 K, x1 = 0.2 | – | 78
333.15 K, x1 = 0.4 | – | 128
333.15 K, x1 = 0.6 | – | 220
333.15 K, x1 = 0.8 | – | 420
333.15 K, x1 = 1 | – | 840

From the CheMixHub ionic liquid set
